From patent publication US20150158891A1, “STABLE PHARMACEUTICAL COMPOSITION FOR OPTIMIZED DELIVERY OF AN HIV ATTACHMENT INHIBITOR” (Bristol-Myers Squibb Company, priority 2008, published 2015) come the findings set out here.

This data set concerns Porcine alkaline phosphatase. Description: Conversion of prodrug to parent compound by alkaline phosphatase in pH 7.0 Tris-HCl buffer solution. It is filed as in vitro ADME. As to the method: Phosphate ester prodrug was dissolved in pH 7.0 Tris-HCl buffer to a concentration of 0.72 mg/mL. Porcine alkaline phosphatase (1 mg/mL) was added to an aliquot of the solution. 2.5 hours after enzyme addition a sample was analyzed. The results in the Table below confirm that alkaline phosphatase is active in pH 7.0 Tris-HCl buffer and rapidly hydrolyzes the phosphate ester prodrug to the parent compound.

With `COc1cnc(-n2cnc(C)n2)c2c1c(C(=O)C(=O)N1CCN(C(=O)c3ccccc3)CC1)cn2COP(=O)(O)O` [Prodrug, 1-benzoyl-4-[2-[4-methoxy-7-(3-methyl-1H-1,2,4-triazol-1-yl)-1-[(phosphonooxy)methyl]-1H-pyrrolo[2,3-c]pyridin-3-yl]-1,2-dioxoethyl]-piperazine], the Prodrug peak area is 0.0% (2.5 hr sample of solution containing enzyme (1 mg/mL)) and 99.9% (initial sample of prodrug solution (no enzyme), 0.72 mg/mL, percent of total prodrug+parent peak area).
